Assay results from ChEMBL document CHEMBL1201862, “PubChem BioAssay data set” (2004).
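Grown in 96-well plates, cells were treated for 48 hours with each compound at five concentrations. Insufficient inhibition: endpoint recorded as highest concentration tested. Here, GI50 denotes the concentration required for 50% inhibition of growth.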 The source made the active and inactive calls. No stated cut-off is given here; in the data, active = GI50 up to about 1.1 µM and inactive = higher.

What was measured:
Assay in all cases: NCI tumour cell line growth inhibition, 48 h
SF-268 = tested on: SF-268
M14 = tested on: M14
SNB-75 = tested on: SNB-75
CAKI-1 = tested on: CAKI-1
786-0 = tested on: 786-0
SK-MEL-2 = tested on: SK-MEL-2
RXF 393 = tested on: RXF 393
BT-549 = tested on: BT-549
DU-145 = tested on: DU-145
NCI-H226 = tested on: NCI-H226
MDA-MB-435 = tested on: MDA-MB-435
COLO 205 = tested on: COLO 205
K562 = tested on: K562
UO-31 = tested on: UO-31
HT-29 = tested on: HT-29
MOLT-4 = tested on: MOLT-4
SK-OV-3 = tested on: SK-OV-3
SNB-19 = tested on: SNB-19
TK-10 = tested on: TK-10
SN12C = tested on: SN12C

Measured: GI50

Cc1ccc(S(=O)(=O)N2CCN3C(=O)c4ccccc4C32c2ccc(F)cc2)cc1 (stereo not given)
inactive: SF-268 98.4 µM | M14 > 100 µM | SNB-75 72.1 µM | CAKI-1 57.3 µM | 786-0 > 100 µM | SK-MEL-2 55.6 µM | RXF 393 65.2 µM | BT-549 > 100 µM | DU-145 78.7 µM | NCI-H226 64 µM | MDA-MB-435 32.8 µM | COLO 205 34.9 µM | K562 42.4 µM | UO-31 44.5 µM | HT-29 40.6 µM | MOLT-4 23.8 µM | SK-OV-3 > 100 µM | SNB-19 > 100 µM | TK-10 > 100 µM | SN12C 32.7 µM

Cn1c(-c2cccs2)cc(-c2cccs2)c1-c1ccsc1
inactive: SF-268 > 100 µM | M14 > 100 µM | SNB-75 > 100 µM | CAKI-1 > 100 µM | 786-0 > 100 µM | SK-MEL-2 34.1 µM | RXF 393 3.64 µM | BT-549 > 100 µM | DU-145 > 100 µM | NCI-H226 > 100 µM | MDA-MB-435 > 100 µM | COLO 205 > 100 µM | K562 > 100 µM | UO-31 > 100 µM | HT-29 > 100 µM | MOLT-4 > 100 µM | SK-OV-3 > 100 µM | SNB-19 70.3 µM | TK-10 > 100 µM | SN12C > 100 µM

CS(=O)(=O)c1cc(=O)c2ccccc2s1
inactive: SF-268 14.1 µM | M14 1.85 µM | SNB-75 16 µM | CAKI-1 2.07 µM | 786-0 5.55 µM | SK-MEL-2 15.3 µM | RXF 393 3.91 µM | BT-549 19.3 µM | DU-145 16.1 µM | NCI-H226 13.7 µM | MDA-MB-435 11 µM | COLO 205 1.76 µM | K562 1.33 µM | UO-31 15.7 µM | HT-29 5.01 µM | MOLT-4 1.72 µM | SK-OV-3 17.6 µM | SNB-19 17.5 µM | TK-10 7.28 µM | SN12C 9.53 µM

N#C/C(=C\c1ccc(F)cc1)c1nc2ccccc2c(=O)[nH]1
inactive: SF-268 58.6 µM | M14 > 100 µM | SNB-75 25.9 µM | CAKI-1 > 100 µM | 786-0 > 100 µM | SK-MEL-2 > 100 µM | RXF 393 > 100 µM | BT-549 36.8 µM | DU-145 > 100 µM | NCI-H226 > 100 µM | MDA-MB-435 > 100 µM | COLO 205 > 100 µM | K562 > 100 µM | UO-31 > 100 µM | HT-29 > 100 µM | MOLT-4 26.1 µM | SK-OV-3 > 100 µM | SNB-19 > 100 µM | TK-10 > 100 µM | SN12C > 100 µM

CCO[C@@]12CCC3CC4CC[C@@](OCC)(O1)C4C32 (stereo not given in full)
inactive: SF-268 > 100 µM | M14 > 100 µM | SNB-75 > 100 µM | CAKI-1 > 100 µM | 786-0 > 100 µM | SK-MEL-2 > 100 µM | RXF 393 > 100 µM | BT-549 > 100 µM | DU-145 > 100 µM | NCI-H226 > 100 µM | MDA-MB-435 > 100 µM | COLO 205 > 100 µM | K562 > 100 µM | UO-31 > 100 µM | HT-29 > 100 µM | MOLT-4 > 100 µM | SK-OV-3 > 100 µM | SNB-19 > 100 µM | TK-10 > 100 µM | SN12C > 100 µM

COC(=O)C1=CC2CCCC1(O)C(C(C)=O)C2 (stereo not given)
inactive: SF-268 > 21.7 µM | M14 > 100 µM | SNB-75 24.4 µM | CAKI-1 > 100 µM | 786-0 20.2 µM | SK-MEL-2 > 68.7 µM | RXF 393 > 70.1 µM | BT-549 > 95.7 µM | DU-145 > 69.7 µM | NCI-H226 > 100 µM | MDA-MB-435 > 100 µM | COLO 205 39.8 µM | K562 34 µM | UO-31 17.3 µM | HT-29 > 100 µM | MOLT-4 21.1 µM | SK-OV-3 > 100 µM | SNB-19 > 100 µM | TK-10 > 100 µM | SN12C > 100 µM

Clc1ccc(-c2nc3cc(Cl)ccc3[nH]2)cc1
inactive: SF-268 45.5 µM | M14 36.4 µM | SNB-75 40.1 µM | CAKI-1 > 100 µM | 786-0 35.2 µM | SK-MEL-2 26.1 µM | RXF 393 > 100 µM | BT-549 32.2 µM | DU-145 31.8 µM | NCI-H226 50 µM | MDA-MB-435 27.6 µM | COLO 205 19.6 µM | K562 38.9 µM | UO-31 26.2 µM | HT-29 33.6 µM | MOLT-4 34.1 µM | SK-OV-3 39.3 µM | SNB-19 41.4 µM | TK-10 30.8 µM | SN12C 26.2 µM
